How the values were obtained:
[1] = system: weeds in seedling alfalfa; experiment: Field trial in seedling alfalfa, Brawley, Calif.: weed density (weeds counted on square yard quadrats); assay type: in vivo; conditions: use rates of Table 5
Excerpt: (§1) The objective of this study was to evaluate the performance of PRONAMIDE and IMAZETHAPYR in commercial alfalfa hay production in Brawley, Calif. Trial treatments applied were as follows:
(§2) Treatments were applied on seedling alfalfa on March 14th at second to third trifoliate stage (3-4 inches tall). Treatment applications were made using a research CO2 backpack sprayer calibrated to deliver 50 gallons of solution per acre operating at 30 PSI. Weeds on the plots were on average 2-3 inches tall. Weather conditions during application were 34.3% RH, air and soil temperatures were 68° F. and 56.3° F. respectively, and soil moisture was dry.
(§3) Trial was rated at 6, 13, 20, 27 and 34 days after product application (DAA). On each rating date, Percent phytotoxicity and weed control based on a 0 to 100% visual scale, and weed density (number of weeds counted on 3 square yard quadrats) per plot were conducted.
(§4) Data was checked for normality assumptions and analyzed using a univariate Analysis of Variance, and the Least Significant Difference (LSD) mean separation test at a significance level of (α=0.1). Significant differences (p<0.1) were found for the dependent variables assessed at all rating dates (See ANOVA tables). Overall, treatments 5 (Raptor 4), 4 (PRONAMIDE and IMAZETHAPYR) and treatment 3 (WW2019-2) consistently provided the best control (higher % control and lower weed densities). Treatment efficacy as evidenced by % burndown (percent control was higher than 70% in all treatments 3-5) and weed counts (remained steady or declined up to this rating date) peaked at 27 DAA and subsequently declined (weed counts increased and percent control declined) at 34 DAA.

[2] = system: weeds in seedling alfalfa; experiment: Field trial in seedling alfalfa, Brawley, Calif.: percent weed control (burndown), 0 to 100% visual scale; assay type: in vivo; conditions: for Percent Weed Control (Burndown), mean: single application on seedling alfalfa, use rates of Table 5, 4 replicates; for Overall weed control (higher % control and lower weed densities), in words: all rating dates 6-34 DAA
Excerpt: as §1, §2, §3, §4

[3] = system: velvetleaf; conditions: 0.10 kg/ha, regardless of the application method; cited from earlier work
[4] = system: smooth pigweed; conditions: 0.05 to 0.14 kg ai/ha, regardless of application method or herbicide rate; cited from earlier work
[5] = system: jimsonweed; conditions: 0.05 kg/ha; cited from earlier work

SMILES	Weed Density, mean ([1]; 6 DA-A)	Weed Density, mean ([1]; 13 DA-A)	Weed Density, mean ([1]; 20 DA-A)	Weed Density, mean ([1]; 27 DA-A)	Weed Density, mean ([1]; 34 DA-A)	Percent Weed Control (Burndown), mean ([2]; 6 DA-A)	Percent Weed Control (Burndown), mean ([2]; 13 DA-A)	Percent Weed Control (Burndown), mean ([2]; 20 DA-A)	Percent Weed Control (Burndown), mean ([2]; 27 DA-A)	Percent Weed Control (Burndown), mean ([2]; 34 DA-A)	Overall weed control (higher % control and lower weed densities), in words [2]	Control of velvetleaf [3]	Overall weed control (higher % control and lower weed densities), in words ([2]; listed as Treatment 3)	Overall weed control (higher % control and lower weed densities), in words ([2]; listed as WW2019-2)	Control of smooth pigweed [4]	Control of jimsonweed, better postemergence compared to soil applications [5]
C#CC(C)(C)NC(=O)c1cc(Cl)cc(Cl)c1 [PRONAMIDE, 3,5-dichloro-n-(1,1-dimethyl-2-propynyl) benzamide]	51 Weeds per yd^2	41 Weeds per yd^2	42 Weeds per yd^2	43 Weeds per yd^2	81 Weeds per yd^2	15%	20%	38%	25%	8%	less beneficial weed control	–	–	–	–	–
CCc1cnc(C2=NC(C)(C(C)C)C(=O)N2)c(C(=O)O)c1 (centres unmarked) [IMAZETHAPYR, 2-[4,5-dihydro-4-methyl-4-(1-methylethyl)-5-oxo-1H-imidazol-2-yl]-5-ethyl-3-pyridinecarboxylic acid]	35 Weeds per yd^2	25 Weeds per yd^2	29 Weeds per yd^2	24 Weeds per yd^2	39 Weeds per yd^2	28%	33%	75%	79%	38%	–	≥ 90%	good weed control	best control	≥ 90%	30%

Reference: US20210378241A1, “COMBINATION COMPRISING A BENZAMIDE HERBICIDE AND A PYRIDINE CARBOXYLIC ACID HERBICIDE, AND A METHOD FOR MAKING AND USING THE COMBINATION” (Generic Crop Science LLC, priority 2020, published 2021)
